Literature values in paper PMC2785207 (The Journal of Biological Chemistry, 2009).

Columns and labels:
CobB = settings: E. coli sirtuin CobB; ref [17], [18]
Sir2 = settings: reaction product; reacts with the O-alkylamidate to regenerate NAD+ and acetyl lysine; ref [14], [15]

| Structure (SMILES) | ribosylation by CobB (CobB) | inhibition of the Sir2 deacetylation reaction (Sir2) |
| --- | --- | --- |
| Cc1cc2nc[nH]c2cc1C [5,6-dimethylbenzimidazole] | ribosylates | – |
| NC(=O)c1cccnc1 [nicotinamide] | – | inhibited |
